Measured values reported in US12351581B2, “Compounds for FGFR inhibition” (Cogent Biosciences, Inc., priority 2023, dated 2025).
Read-outs that look alike come from different tables or passages of the source.

Assays:
FGFR2 = target: T1, FGFR2 (Homo sapiens, UniProt P21802); assay: FGFR wild type enzyme assay (HTRF KinEASE-TK); assay type: biochemical; conditions: ATP 2 uM
T1 construct: biochemical assays using purified intracellular domains of the respective isoforms; purchased Carna Bioscience 08-134
T1 sequence (P21802 399-821 limits assumed): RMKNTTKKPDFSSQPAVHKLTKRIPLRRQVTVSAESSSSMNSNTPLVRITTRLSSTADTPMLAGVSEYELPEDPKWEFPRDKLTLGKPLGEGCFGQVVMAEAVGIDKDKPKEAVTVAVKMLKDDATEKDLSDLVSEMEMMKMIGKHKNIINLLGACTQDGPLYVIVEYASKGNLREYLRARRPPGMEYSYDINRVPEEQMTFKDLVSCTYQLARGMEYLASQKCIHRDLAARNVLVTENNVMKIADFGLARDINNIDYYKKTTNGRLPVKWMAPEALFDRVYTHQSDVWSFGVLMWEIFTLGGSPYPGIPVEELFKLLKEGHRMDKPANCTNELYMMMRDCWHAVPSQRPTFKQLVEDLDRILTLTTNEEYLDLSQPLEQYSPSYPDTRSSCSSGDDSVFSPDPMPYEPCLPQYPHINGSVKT
Summary of the method: (§1)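 Purified intracellular kinase domains, enzyme pre-incubated 30 min with compound (11-point 1:3 dilutions, typically 10,000-0.17 nM), then ATP plus 0.5 uM TK-peptide, 60 min at room temperature in HEPES pH7.5 with Mg2+/Mn2+. HTRF 665/615 ratio converted to percent of control; IC50 from four-parameter logistic fit.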

FGFR2-WT = FGFR2-WT (Homo sapiens, UniProt P21802); assay: Phosphorylated FGFR2-WT (pFGFR2-WT) cell assay, KATOIII cells; assay type: cell-based; conditions: 1 hour incubation, phospho FGFR2 HTRF
FGFR2-WT, sequence (P21802 430-767 limits assumed): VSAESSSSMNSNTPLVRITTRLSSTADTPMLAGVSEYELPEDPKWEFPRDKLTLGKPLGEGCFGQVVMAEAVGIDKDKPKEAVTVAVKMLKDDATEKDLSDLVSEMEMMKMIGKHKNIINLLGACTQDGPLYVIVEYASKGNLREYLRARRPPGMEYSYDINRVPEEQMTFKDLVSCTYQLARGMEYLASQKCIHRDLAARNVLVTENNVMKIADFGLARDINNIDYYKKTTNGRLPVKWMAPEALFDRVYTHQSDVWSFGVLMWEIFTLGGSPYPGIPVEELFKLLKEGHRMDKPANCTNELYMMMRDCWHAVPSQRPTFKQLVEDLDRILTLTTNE
Summary of the method: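 KATOIII cells treated 1 h at 37 °C with threefold compound dilutions (10 μM to 0.5 nM). Lysate phospho-FGFR2 (Tyr653/654) read by HTRF.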

FGFR2 N549H = target: T2, FGFR2 N549H (Homo sapiens, UniProt P21802, N549H); assay: FGFR mutant enzyme assay (HTRF KinEASE-TK); assay type: biochemical; conditions: ATP 0.9 uM
T2 construct: biochemical assays using purified intracellular domains of the respective isoforms; purchased Carna Bioscience 08-532
T2 sequence (P21802 399-821 N549H limits assumed): as the sequence (P21802 399-821 limits assumed) above, with N151H counted along it
Summary of the method: as §1

FGFR2 V564F = target: T3, FGFR2 V564F (Homo sapiens, UniProt P21802, V564F); assay: FGFR mutant enzyme assay (HTRF KinEASE-TK); assay type: biochemical; conditions: ATP 1.5 uM
T3 construct: biochemical assays using purified intracellular domains of the respective isoforms; purchased SignalChem Biotech F05-12FG
T3 sequence (P21802 399-821 V564F limits assumed): as the sequence (P21802 399-821 limits assumed) above, with V166F counted along it
Summary of the method: as §1

FGFR2 V564I = target: T4, FGFR2 V564I (Homo sapiens, UniProt P21802, V564I); assay: FGFR mutant enzyme assay (HTRF KinEASE-TK); assay type: biochemical; conditions: ATP 0.4 uM
T4 construct: biochemical assays using purified intracellular domains of the respective isoforms; purchased Carna Bioscience 08-546
T4 sequence (P21802 399-821 V564I limits assumed): as the sequence (P21802 399-821 limits assumed) above, with V166I counted along it
Summary of the method: as §1

[1] = compound table after the examples, read-out: Enz FGFR2

Compound Cc1c(-c2cc(O[C@H](C)c3ccc(F)cn3)c3c(C#N)cnn3c2)cnn1[C@H]1CCCC[C@@H]1O [Compound 61, 4-((R)-1-(5-fluoropyridin-2-yl)ethoxy)-6-(1-((1S,2S)-2-hydroxycyclohexyl)-5-methyl-1H-pyrazol-4-yl)pyrazolo[1,5-a]pyridine-3-carbonitrile] has an IC50 (FGFR2; Table 3, read-out: FGFR2 Enz) of 0.3 nM, an IC50 (FGFR2; [1]) of 0.3 nM and an IC50 (FGFR2-WT) of 3 nM. For the same compound, the IC50 (FGFR2 N549H) was 0.4 nM, the IC50 (FGFR2 V564F) was 1 nM and the IC50 (FGFR2 V564I) was 1.5 nM.
With Cc1c(-c2cc(O[C@H](C)c3ccc(F)cn3)c3c(C#N)cnn3c2)cnn1C1CCN(C(=O)[C@@H](N)C(C)C)CC1 [Compound 44, 6-(1-(1-(L-valyl)piperidin-4-yl)-5-methyl-1H-pyrazol-4-yl)-4-((R)-1-(5-fluoropyridin-2-yl)ethoxy)pyrazolo[1,5-a]pyridine-3-carbonitrile] the IC50 (FGFR2; Table 3, read-out: FGFR2 Enz) was 0.5 nM, the IC50 (FGFR2; [1]) was 0.5 nM and the IC50 (FGFR2-WT) was 8 nM. It also gave an IC50 (FGFR2 N549H) of 0.4 nM, an IC50 (FGFR2 V564F) of 1 nM and an IC50 (FGFR2 V564I) of 1.5 nM.
Cc1nn(C2CCNCC2)c(C)c1-c1cc(O[C@H](C)c2ccccn2)c2c(C#N)cnn2c1 [Compound 4, (R)-6-(3,5-dimethyl-1-(piperidin-4-yl)-1H-pyrazol-4-yl)-4-(1-(pyridin-2-yl)ethoxy)pyrazolo[1,5-a]pyridine-3-carbonitrile] was tested, and the IC50 (FGFR2; Table 3, read-out: FGFR2 Enz) was 1 nM, the IC50 (FGFR2; [1]) was 1 nM and the IC50 (FGFR2-WT) was 26 nM. It also gave an IC50 (FGFR2 N549H) of 2 nM, an IC50 (FGFR2 V564F) of 3 nM and an IC50 (FGFR2 V564I) of 4 nM.
In the case of Cc1c(-c2cc(O[C@H](C)c3ccc(F)cn3)c3c(C#N)cnn3c2)cnn1[C@H]1CC[C@](C)(O)CC1 [Compound 22, 4-((R)-1-(5-fluoropyridin-2-yl)ethoxy)-6-(1-((1r,4R)-4-hydroxy-4-methylcyclohexyl)-5-methyl-1H-pyrazol-4-yl)pyrazolo[1,5-a]pyridine-3-carbonitrile], the IC50 (FGFR2; Table 3, read-out: FGFR2 Enz) is reported as 0.3 nM, the IC50 (FGFR2; [1]) is reported as 0.3 nM and the IC50 (FGFR2-WT) is reported as 2.7 nM. For the same compound, the IC50 (FGFR2 N549H) was 0.4 nM, the IC50 (FGFR2 V564F) was 1 nM and the IC50 (FGFR2 V564I) was 1.4 nM.
In the case of Cc1c(-c2cc(O[C@H](C)c3ncccc3F)c3c(C#N)cnn3c2)cnn1C1CCNCC1 [Compound 9, (R)-4-(1-(3-fluoropyridin-2-yl)ethoxy)-6-(5-methyl-1-(piperidin-4-yl)-1H-pyrazol-4-yl)pyrazolo[1,5-a]pyridine-3-carbonitrile], the IC50 (FGFR2; Table 3, read-out: FGFR2 Enz) is reported as 0.3 nM, the IC50 (FGFR2; [1]) is reported as 0.3 nM and the IC50 (FGFR2-WT) is reported as 7 nM. The IC50 (FGFR2 N549H) was 0.5 nM, the IC50 (FGFR2 V564F) was 1 nM and the IC50 (FGFR2 V564I) was 1 nM.
In the case of Cc1c(-c2cc(O[C@H](C)c3ccc(F)cn3)c3c(C#N)cnn3c2)cnn1C1CCN(C(=O)C2(N)CCC2)CC1 [Compound 43, (R)-6-(1-(1-(1-aminocyclobutane-1-carbonyl)piperidin-4-yl)-5-methyl-1H-pyrazol-4-yl)-4-(1-(5-fluoropyridin-2-yl)ethoxy)pyrazolo[1,5-a]pyridine-3-carbonitrile], the IC50 (FGFR2; Table 3, read-out: FGFR2 Enz) is reported as 1 nM, the IC50 (FGFR2; [1]) is reported as 1 nM and the IC50 (FGFR2-WT) is reported as 9 nM. It also gave an IC50 (FGFR2 N549H) of 1 nM, an IC50 (FGFR2 V564F) of 3 nM and an IC50 (FGFR2 V564I) of 3 nM.
Compound Cc1c(-c2cc(O[C@H](C)c3ccc(F)cn3)c3c(C#N)cnn3c2)cnn1[C@@H]1CCC[C@H](O)C1 [Compound 72, 4-((R)-1-(5-fluoropyridin-2-yl)ethoxy)-6-(1-((1R,3S)-3-hydroxycyclohexyl)-5-methyl-1H-pyrazol-4-yl)pyrazolo[1,5-a]pyridine-3-carbonitrile] has an IC50 (FGFR2; Table 3, read-out: FGFR2 Enz) of 0.4 nM, an IC50 (FGFR2; [1]) of 0.4 nM and an IC50 (FGFR2-WT) of 3 nM. The IC50 (FGFR2 N549H) was 0.45 nM, the IC50 (FGFR2 V564F) was 1 nM and the IC50 (FGFR2 V564I) was 1.5 nM.
Cc1c(-c2cc(O[C@H](C)c3ccc(F)cn3)c3c(C#N)cnn3c2)cnn1C1CCN(C[C@H](O)CO)CC1 [Compound 39, 6-(1-(1-((S)-2,3-dihydroxypropyl)piperidin-4-yl)-5-methyl-1H-pyrazol-4-yl)-4-((R)-1-(5-fluoropyridin-2-yl)ethoxy)pyrazolo[1,5-a]pyridine-3-carbonitrile] gave an IC50 (FGFR2; Table 3, read-out: FGFR2 Enz) of 0.5 nM, an IC50 (FGFR2; [1]) of 0.5 nM and an IC50 (FGFR2-WT) of 5.5 nM. It also gave an IC50 (FGFR2 N549H) of 0.4 nM, an IC50 (FGFR2 V564F) of 1 nM and an IC50 (FGFR2 V564I) of 1 nM.
CC(=O)N[C@H]1CC[C@H](n2ncc(-c3cc(O[C@H](C)c4ccc(F)cn4)c4c(C#N)cnn4c3)c2C)CC1 [Compound 36, N-((1R,4r)-4-(4-(3-cyano-4-((R)-1-(5-fluoropyridin-2-yl)ethoxy)pyrazolo[1,5-a]pyridin-6-yl)-5-methyl-1H-pyrazol-1-yl)cyclohexyl)acetamide] was tested, and the IC50 (FGFR2; Table 3, read-out: FGFR2 Enz) was 0.4 nM, the IC50 (FGFR2; [1]) was 0.4 nM and the IC50 (FGFR2-WT) was 4 nM. For the same compound, the IC50 (FGFR2 N549H) was 0.5 nM, the IC50 (FGFR2 V564F) was 1.5 nM and the IC50 (FGFR2 V564I) was 2 nM.
Cc1c(-c2cc(O[C@H](C)c3ccccn3)c3c(C#N)cnn3c2)cnn1C1CCNCC1 [Compound 5, (R)-6-(5-methyl-1-(piperidin-4-yl)-1H-pyrazol-4-yl)-4-(1-(pyridin-2-yl)ethoxy)pyrazolo[1,5-a]pyridine-3-carbonitrile] showed an IC50 (FGFR2; Table 3, read-out: FGFR2 Enz) of 0.25 nM, an IC50 (FGFR2; [1]) of 0.25 nM and an IC50 (FGFR2-WT) of 5 nM. For the same compound, the IC50 (FGFR2 N549H) was 0.7 nM, the IC50 (FGFR2 V564F) was 1 nM and the IC50 (FGFR2 V564I) was 1.4 nM.
Work on Cc1c(-c2cc(O[C@H](C)c3ccc(Cl)cn3)c3c(C#N)cnn3c2)cnn1[C@H]1CCCNC1 [Compound 14, 4-((R)-1-(5-chloropyridin-2-yl)ethoxy)-6-(5-methyl-1-((S)-piperidin-3-yl)-1H-pyrazol-4-yl)pyrazolo[1,5-a]pyridine-3-carbonitrile] yielded an IC50 (FGFR2; Table 3, read-out: FGFR2 Enz) of 12.5 nM, an IC50 (FGFR2; [1]) of 12.5 nM and an IC50 (FGFR2-WT) of 267 nM. The IC50 (FGFR2 N549H) was 14 nM, the IC50 (FGFR2 V564F) was 15 nM and the IC50 (FGFR2 V564I) was 38 nM.
Work on Cc1nn(C[C@H](O)CO)cc1-c1cc(O[C@H](C)c2ccc(F)cn2)c2c(C#N)cnn2c1 [Compound 28, 6-(1-((S)-2,3-dihydroxypropyl)-3-methyl-1H-pyrazol-4-yl)-4-((R)-1-(5-fluoropyridin-2-yl)ethoxy)pyrazolo[1,5-a]pyridine-3-carbonitrile] yielded an IC50 (FGFR2; Table 3, read-out: FGFR2 Enz) of 3 nM, an IC50 (FGFR2; [1]) of 3 nM and an IC50 (FGFR2-WT) of 17 nM. For the same compound, the IC50 (FGFR2 N549H) was 5 nM, the IC50 (FGFR2 V564F) was 10 nM and the IC50 (FGFR2 V564I) was 12 nM.
C[C@@H](Oc1cc(-c2cnn(CCO)c2N)cn2ncc(C#N)c12)c1ccc(F)cn1 [Compound 31, (R)-6-(5-amino-1-(2-hydroxyethyl)-1H-pyrazol-4-yl)-4-(1-(5-fluoropyridin-2-yl)ethoxy)pyrazolo[1,5-a]pyridine-3-carbonitrile] gave an IC50 (FGFR2; Table 3, read-out: FGFR2 Enz) of 1 nM, an IC50 (FGFR2; [1]) of 1 nM and an IC50 (FGFR2-WT) of 7 nM. For the same compound, the IC50 (FGFR2 N549H) was 2 nM, the IC50 (FGFR2 V564F) was 5 nM and the IC50 (FGFR2 V564I) was 5.6 nM.
With Cc1c(-c2cc(O[C@H](C)c3ccc(F)cn3)c3c(C#N)cnn3c2)nnn1[C@H]1CC[C@H](O)CC1 [Compound 59, 4-((R)-1-(5-fluoropyridin-2-yl)ethoxy)-6-(1-((1r,4R)-4-hydroxycyclohexyl)-5-methyl-1H-1,2,3-triazol-4-yl)pyrazolo[1,5-a]pyridine-3-carbonitrile] the IC50 (FGFR2; Table 3, read-out: FGFR2 Enz) was 0.5 nM, the IC50 (FGFR2; [1]) was 0.5 nM and the IC50 (FGFR2-WT) was 5.7 nM. It also gave an IC50 (FGFR2 N549H) of 1 nM, an IC50 (FGFR2 V564F) of 3 nM and an IC50 (FGFR2 V564I) of 3 nM.
With C[C@@H](Oc1cc(-c2cnn(C3CCN(C#N)CC3)c2N)cn2ncc(C#N)c12)c1ccc(F)cn1 [Compound 47, (R)-6-(5-amino-1-(1-cyanopiperidin-4-yl)-1H-pyrazol-4-yl)-4-(1-(5-fluoropyridin-2-yl)ethoxy)pyrazolo[1,5-a]pyridine-3-carbonitrile] the IC50 (FGFR2; Table 3, read-out: FGFR2 Enz) was 0.3 nM, the IC50 (FGFR2; [1]) was 0.3 nM and the IC50 (FGFR2-WT) was 4 nM. The IC50 (FGFR2 N549H) was 0.4 nM, the IC50 (FGFR2 V564F) was 1 nM and the IC50 (FGFR2 V564I) was 1 nM.
In the case of Cc1c(-c2cc(O[C@@H](c3ccc(F)cn3)C(F)(F)F)c3c(C#N)cnn3c2)cnn1[C@H]1CC[C@H](O)CC1 [Compound 69, 6-(1-((1r,4S)-4-hydroxycyclohexyl)-5-methyl-1H-pyrazol-4-yl)-4-((S)-2,2,2-trifluoro-1-(5-fluoropyridin-2-yl)ethoxy)pyrazolo[1,5-a]pyridine-3-carbonitrile], the IC50 (FGFR2; Table 3, read-out: FGFR2 Enz) is reported as 0.4 nM, the IC50 (FGFR2; [1]) is reported as 0.4 nM and the IC50 (FGFR2-WT) is reported as 2 nM. The IC50 (FGFR2 N549H) was 1 nM, the IC50 (FGFR2 V564F) was 1.6 nM and the IC50 (FGFR2 V564I) was 1.6 nM.
